± gives the standard error.
System: 621-102 (TSC2-deficient)
Test: relative viability vs DMSO; higher = less cytotoxic
Conditions: 0.1 µM; serum: 10% FBS; 72 h
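Also: immortalized renal angiomyolipoma cells stably carrying empty vector or TSC2, dosed in 384-well plates in DMEM, viability normalized to vehicle-treated wells within each plate.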

Compound | relative viability
CC(C)OC(=O)C1=CN(C(=O)c2ccc(F)c(F)c2)CC(C)(C)c2c1[nH]c1ccccc21 | 102 ± 6.7%
CN(C)Cc1cccc(N/C(=C2\C(=O)Nc3cc(C(N)=O)ccc32)c2ccccc2)c1 | 103 ± 2.6%
CN(C)Cc1cccc(N=C(c2ccccc2)c2c(O)[nH]c3cc(C(=O)N(C)C)ccc23)c1 | 100.76 ± 0.028%
CNC(=O)Nc1ccc(-c2nc(N3CC4CCC(C3)O4)c3cnn(C4CCC5(CC4)OCCO5)c3n2)cc1 | 37.41 ± 0.17%
COC(=O)N[C@H](C(=O)N1CCC[C@H]1c1ncc(-c2ccc(-c3ccc(-c4cnc([C@@H]5CCCN5C(=O)[C@@H](NC(=O)OC)C(C)C)[nH]4)cc3)cc2)[nH]1)C(C)C | 101 ± 3.8%
COc1cc2c(Nc3ccc(NC(=O)c4ccccc4)cc3)ncnc2cc1OCCCN1CCOCC1 | 90.2 ± 5.2%
COc1cc2c(Oc3ccc(NC(=O)C4(C(=O)Nc5ccc(F)cc5)CC4)cc3F)ccnc2cc1OCCCN1CCOCC1 | 102 ± 5.8%
COc1ccccc1N1CCN(CCN(C(=O)C2CCCCC2)c2ccccn2)CC1 | 104.2 ± 0.32%
C[C@@H]1CCO[C@H]2Cn3cc(C(=O)NCc4ccc(F)cc4F)c(=O)c(O)c3C(=O)N12 | 106 ± 2.5%
C[S+]([O-])c1ccc(-c2nc(-c3ccc(F)cc3)c(-c3ccncc3)[nH]2)cc1 (stereo not given) | 102 ± 1.2%
Cc1[nH]c(/C=C2\C(=O)Nc3ccc(S(=O)(=O)N(C)c4cccc(Cl)c4)cc32)c(C)c1C(=O)N1CCN(C)CC1 | 91.6 ± 1.4%
Cc1[nH]nc2ccc(-c3cncc(OC[C@@H](N)Cc4ccccc4)c3)cc12 | 99.05 ± 0.49%
Cc1c(NC(=O)OC[C@@H]2COCCN2)cn2ncnc(Nc3ccc4c(cnn4Cc4cccc(F)c4)c3)c12 | 104.2 ± 0.79%
Cc1ccc(C(=O)N(CCCN)[C@@H](c2oc3cc(Cl)ccc3c(=O)c2Cc2ccccc2)C(C)C)cc1 | 69.9 ± 1.3%
Cc1ccc(NC(=O)c2cccc(N(C)C)c2)cc1NC(=O)c1ccc(O)cc1 | 109 ± 5%
Cc1cccc(-c2[nH]c(C(C)(C)C)nc2-c2ccc3nccnc3c2)n1 | 108.6 ± 0.23%
Cc1cnc(Nc2ccc(N3CCN(C)CC3)cc2)nc1Nc1cccc(S(=O)(=O)NC(C)(C)C)c1 | 107 ± 2.4%
Cn1c(N2CCCCS2(=O)=O)nc(C(=O)NCc2ccc(F)cc2)c(O)c1=O | 102 ± 1.9%
Cn1cc(C2=C(c3ccc(Cl)cc3Cl)C(=O)NC2=O)c2ccccc21 | 90.4 ± 5.3%
N#Cc1c(O)c2c(-c3ccc(-c4ccccc4O)cc3)csc2[nH]c1=O | 93.17 ± 0.38%
NC(=O)[C@@H](CCC(F)(F)F)N(Cc1ccc(-c2ncon2)cc1F)S(=O)(=O)c1ccc(Cl)cc1 | 116.1 ± 0.31%
NC(=O)c1ccc(-c2nc(-c3ccccn3)c(-c3ccc4c(c3)OCO4)[nH]2)cc1 | 117 ± 3.9%
NC(=O)c1cccc2[nH]c(-c3ccc(C4CCCN4)cc3F)nc12 (stereo not given) | 99.4 ± 3.5%
Nc1nccc(Oc2ccc(NC(=O)c3c[nH]cc(-c4ccc(F)cc4)c3=O)cc2F)c1Cl | 103 ± 2.8%
O=C(NC[C@H](O)CO)c1ccncc1Nc1ccc(I)cc1F | 97.01 ± 0.18%
O=C1NC(=O)/C(=C/c2ccc(-c3ccc(F)cc3O)o2)S1 | 96.7 ± 3.6%
O=C1NC(=O)/C(=C/c2ccc3c(c2)OC(F)(F)O3)S1 | 104.3 ± 0.58%
O=C1NC(=O)/C(=C\c2ccc3nccnc3c2)S1 | 108 ± 7.8%
Oc1c2ccccc2c2c3c(cccc13)N=N2 | 103 ± 1.3%
Oc1ccc(-c2nc(-c3ccc(F)cc3)c(-c3ccncc3)[nH]2)cc1 | 104.8 ± 0.31%

Same assay, conditions: 1 µM; serum: 10% FBS; 72 h

Compound | relative viability
CC(C)OC(=O)C1=CN(C(=O)c2ccc(F)c(F)c2)CC(C)(C)c2c1[nH]c1ccccc21 | 101 ± 2.5%
CN(C)Cc1cccc(N/C(=C2\C(=O)Nc3cc(C(N)=O)ccc32)c2ccccc2)c1 | 99.92 ± 0.15%
CN(C)Cc1cccc(N=C(c2ccccc2)c2c(O)[nH]c3cc(C(=O)N(C)C)ccc23)c1 | 98.5 ± 6.6%
CNC(=O)Nc1ccc(-c2nc(N3CC4CCC(C3)O4)c3cnn(C4CCC5(CC4)OCCO5)c3n2)cc1 | 25.6 ± 0.73%
COC(=O)N[C@H](C(=O)N1CCC[C@H]1c1ncc(-c2ccc(-c3ccc(-c4cnc([C@@H]5CCCN5C(=O)[C@@H](NC(=O)OC)C(C)C)[nH]4)cc3)cc2)[nH]1)C(C)C | 96.21 ± 0.14%
COc1cc2c(Nc3ccc(NC(=O)c4ccccc4)cc3)ncnc2cc1OCCCN1CCOCC1 | 79.6 ± 3.6%
COc1cc2c(Oc3ccc(NC(=O)C4(C(=O)Nc5ccc(F)cc5)CC4)cc3F)ccnc2cc1OCCCN1CCOCC1 | 84.55 ± 0.78%
COc1ccccc1N1CCN(CCN(C(=O)C2CCCCC2)c2ccccn2)CC1 | 97.19 ± 0.27%
C[C@@H]1CCO[C@H]2Cn3cc(C(=O)NCc4ccc(F)cc4F)c(=O)c(O)c3C(=O)N12 | 93.7 ± 9.2%
C[S+]([O-])c1ccc(-c2nc(-c3ccc(F)cc3)c(-c3ccncc3)[nH]2)cc1 (stereo not given) | 111 ± 2%
Cc1[nH]c(/C=C2\C(=O)Nc3ccc(S(=O)(=O)N(C)c4cccc(Cl)c4)cc32)c(C)c1C(=O)N1CCN(C)CC1 | 100 ± 2.6%
Cc1[nH]nc2ccc(-c3cncc(OC[C@@H](N)Cc4ccccc4)c3)cc12 | 66.5 ± 1.1%
Cc1c(NC(=O)OC[C@@H]2COCCN2)cn2ncnc(Nc3ccc4c(cnn4Cc4cccc(F)c4)c3)c12 | 96.3 ± 2.8%
Cc1ccc(C(=O)N(CCCN)[C@@H](c2oc3cc(Cl)ccc3c(=O)c2Cc2ccccc2)C(C)C)cc1 | 80.2 ± 2.9%
Cc1ccc(NC(=O)c2cccc(N(C)C)c2)cc1NC(=O)c1ccc(O)cc1 | 109 ± 5.4%
Cc1cccc(-c2[nH]c(C(C)(C)C)nc2-c2ccc3nccnc3c2)n1 | 105 ± 2.2%
Cc1cnc(Nc2ccc(N3CCN(C)CC3)cc2)nc1Nc1cccc(S(=O)(=O)NC(C)(C)C)c1 | 80.4 ± 2.8%
Cn1c(N2CCCCS2(=O)=O)nc(C(=O)NCc2ccc(F)cc2)c(O)c1=O | 108.8 ± 0.34%
Cn1cc(C2=C(c3ccc(Cl)cc3Cl)C(=O)NC2=O)c2ccccc21 | 96.83 ± 0.6%
N#Cc1c(O)c2c(-c3ccc(-c4ccccc4O)cc3)csc2[nH]c1=O | 98.55 ± 0.91%
NC(=O)[C@@H](CCC(F)(F)F)N(Cc1ccc(-c2ncon2)cc1F)S(=O)(=O)c1ccc(Cl)cc1 | 117 ± 2.9%
NC(=O)c1ccc(-c2nc(-c3ccccn3)c(-c3ccc4c(c3)OCO4)[nH]2)cc1 | 112.6 ± 1%
NC(=O)c1cccc2[nH]c(-c3ccc(C4CCCN4)cc3F)nc12 (stereo not given) | 102 ± 4.6%
Nc1nccc(Oc2ccc(NC(=O)c3c[nH]cc(-c4ccc(F)cc4)c3=O)cc2F)c1Cl | 102 ± 2.2%
O=C(NC[C@H](O)CO)c1ccncc1Nc1ccc(I)cc1F | 90.5 ± 2%
O=C1NC(=O)/C(=C/c2ccc(-c3ccc(F)cc3O)o2)S1 | 106 ± 2.1%
O=C1NC(=O)/C(=C/c2ccc3c(c2)OC(F)(F)O3)S1 | 100.2 ± 0.23%
O=C1NC(=O)/C(=C\c2ccc3nccnc3c2)S1 | 105.2 ± 0.38%
Oc1c2ccccc2c2c3c(cccc13)N=N2 | 102 ± 4%
Oc1ccc(-c2nc(-c3ccc(F)cc3)c(-c3ccncc3)[nH]2)cc1 | 103.8 ± 0.12%

Same assay, conditions: 10 µM; serum: 10% FBS; 72 h

Compound | relative viability
CC(C)OC(=O)C1=CN(C(=O)c2ccc(F)c(F)c2)CC(C)(C)c2c1[nH]c1ccccc21 | 101 ± 3.1%
CN(C)Cc1cccc(N/C(=C2\C(=O)Nc3cc(C(N)=O)ccc32)c2ccccc2)c1 | 87.26 ± 0.14%
CN(C)Cc1cccc(N=C(c2ccccc2)c2c(O)[nH]c3cc(C(=O)N(C)C)ccc23)c1 | 93.3 ± 1.4%
CNC(=O)Nc1ccc(-c2nc(N3CC4CCC(C3)O4)c3cnn(C4CCC5(CC4)OCCO5)c3n2)cc1 | 9.06 ± 0.58%
COC(=O)N[C@H](C(=O)N1CCC[C@H]1c1ncc(-c2ccc(-c3ccc(-c4cnc([C@@H]5CCCN5C(=O)[C@@H](NC(=O)OC)C(C)C)[nH]4)cc3)cc2)[nH]1)C(C)C | 81.1 ± 2%
COc1cc2c(Nc3ccc(NC(=O)c4ccccc4)cc3)ncnc2cc1OCCCN1CCOCC1 | 7.78 ± 0.95%
COc1cc2c(Oc3ccc(NC(=O)C4(C(=O)Nc5ccc(F)cc5)CC4)cc3F)ccnc2cc1OCCCN1CCOCC1 | 2.81 ± 0.28%
COc1ccccc1N1CCN(CCN(C(=O)C2CCCCC2)c2ccccn2)CC1 | 99.4 ± 1%
C[C@@H]1CCO[C@H]2Cn3cc(C(=O)NCc4ccc(F)cc4F)c(=O)c(O)c3C(=O)N12 | 108 ± 3.5%
C[S+]([O-])c1ccc(-c2nc(-c3ccc(F)cc3)c(-c3ccncc3)[nH]2)cc1 (stereo not given) | 110 ± 2.8%
Cc1[nH]c(/C=C2\C(=O)Nc3ccc(S(=O)(=O)N(C)c4cccc(Cl)c4)cc32)c(C)c1C(=O)N1CCN(C)CC1 | 87.2 ± 1.5%
Cc1[nH]nc2ccc(-c3cncc(OC[C@@H](N)Cc4ccccc4)c3)cc12 | 2.57 ± 0.016%
Cc1c(NC(=O)OC[C@@H]2COCCN2)cn2ncnc(Nc3ccc4c(cnn4Cc4cccc(F)c4)c3)c12 | 81.33 ± 0.65%
Cc1ccc(C(=O)N(CCCN)[C@@H](c2oc3cc(Cl)ccc3c(=O)c2Cc2ccccc2)C(C)C)cc1 | 1.36 ± 0.19%
Cc1ccc(NC(=O)c2cccc(N(C)C)c2)cc1NC(=O)c1ccc(O)cc1 | 92.1 ± 6%
Cc1cccc(-c2[nH]c(C(C)(C)C)nc2-c2ccc3nccnc3c2)n1 | 38.9 ± 2.9%
Cc1cnc(Nc2ccc(N3CCN(C)CC3)cc2)nc1Nc1cccc(S(=O)(=O)NC(C)(C)C)c1 | 3.65 ± 0.42%
Cn1c(N2CCCCS2(=O)=O)nc(C(=O)NCc2ccc(F)cc2)c(O)c1=O | 99.97 ± 0.61%
Cn1cc(C2=C(c3ccc(Cl)cc3Cl)C(=O)NC2=O)c2ccccc21 | 97.5 ± 1.9%
N#Cc1c(O)c2c(-c3ccc(-c4ccccc4O)cc3)csc2[nH]c1=O | 87.2 ± 3.2%
NC(=O)[C@@H](CCC(F)(F)F)N(Cc1ccc(-c2ncon2)cc1F)S(=O)(=O)c1ccc(Cl)cc1 | 108 ± 2.9%
NC(=O)c1ccc(-c2nc(-c3ccccn3)c(-c3ccc4c(c3)OCO4)[nH]2)cc1 | 106.7 ± 0.3%
NC(=O)c1cccc2[nH]c(-c3ccc(C4CCCN4)cc3F)nc12 (stereo not given) | 93.99 ± 0.45%
Nc1nccc(Oc2ccc(NC(=O)c3c[nH]cc(-c4ccc(F)cc4)c3=O)cc2F)c1Cl | 94.5 ± 1.3%
O=C(NC[C@H](O)CO)c1ccncc1Nc1ccc(I)cc1F | 55.7 ± 0.91%
O=C1NC(=O)/C(=C/c2ccc(-c3ccc(F)cc3O)o2)S1 | 90.8 ± 2.4%
O=C1NC(=O)/C(=C/c2ccc3c(c2)OC(F)(F)O3)S1 | 102.4 ± 0.35%
O=C1NC(=O)/C(=C\c2ccc3nccnc3c2)S1 | 110 ± 3.2%
Oc1c2ccccc2c2c3c(cccc13)N=N2 | 83.3 ± 2.2%
Oc1ccc(-c2nc(-c3ccc(F)cc3)c(-c3ccncc3)[nH]2)cc1 | 105 ± 2.4%

— the supplement of paper PMC8960247
